Assays:
HBV = test: In vitro antiviral assay: anti-HBV replication in HepAD38 cells (extracellular HBV DNA by QPCR); type: cell-based, hepatitis B virus (genotype D, serotype ayw); details: Hepatitis B virus, HePAD38, 168 h, 7 days incubation, extracellular HBV DNA by QPCR, read-out: Anti-HBV EC50
Outline: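 HepG2-derived HepAD38 cells (HBV genotype D, ayw, tet-repressible CMV) induced by tetracycline withdrawal, treated 7 days at 37 °C with compound (1 μM to 10 pM, 10-fold steps). Supernatant HBV DNA quantified by QPCR against standard curve, percent of DMSO control; EC50 by 4-parameter fit; entecavir positive control.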

[1] = In vitro cytotoxicity assay (MTT cell viability) in HepG2 cells; type: cell-based, human; details: human
Outline: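 CC50 was derived by 4-parameter fit of viability relative to vehicle controls, measured as MTT formazan absorbance at 492 nm after 3–4 h of reagent and DMSO solubilization. Before that, HepG2 cells seeded overnight at 20,000/well were incubated 7 days at 37°C with compound from 30 μM down to 1.0 nM in half-log steps.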

SMILES | EC50 (HBV) [nM] | CC50 at 7 days [1] [nM]
Cc1cc(NC(=O)c2c(C)c(C(=O)C(=O)N[C@]3(C)CC[C@H](O)CC3)n(C)c2CC2CC2)ccc1F [Example 125, 2-(cyclopropylmethyl)-N-(4-fluoro-3-methylphenyl)-5-(2-(((1s,4s)-4-hydroxy-1-methylcyclohexyl)amino)-2-oxoacetyl)-1,4-dimethyl-1H-pyrrole-3-carboxamide] | < 50 | > 30000
Cc1c(C(=O)Nc2ccc(F)c(C#N)c2)c(C)n(C)c1C(=O)C(=O)Nc1cccc(B(O)O)c1 [Example 141, (3-(2-(4-((3-cyano-4-fluorophenyl)carbamoyl)-1,3,5-trimethyl-1H-pyrrol-2-yl)-2-oxoacetamido)phenyl)boronic acid] | 50 to 499 | > 30000
Cc1cc(NC(=O)c2c(C)c(C(=O)C(=O)N[C@]3(C)CC[C@H](O)CC3)n(C)c2C2CCCCC2)ccc1F [Example 118, 2-cyclohexyl-N-(4-fluoro-3-methylphenyl)-5-(2-(((1s,4s)-4-hydroxy-1-methylcyclohexyl)amino)-2-oxoacetyl)-1,4-dimethyl-1H-pyrrole-3-carboxamide] | 500 to 1000 | > 30000
Cc1cc(NC(=O)c2c(C3CC3)c(C(=O)C(=O)N[C@]3(C)C[C@H](O)C3)n(C)c2C)ccc1F [Example 98, 4-cyclopropyl-N-(4-fluoro-3-methylphenyl)-5-(2-(((1s,3s)-3-hydroxy-1-methylcyclobutyl)amino)-2-oxoacetyl)-1,2-dimethyl-1H-pyrrole-3-carboxamide] | 50 to 499 | > 30000
Cc1cc(NC(=O)c2c(C3CC3)c(C(=O)C(=O)N[C@H]3CC[C@@H](S(C)(=O)=O)CC3)n(C)c2C)ccc1F [Example 100, 4-cyclopropyl-N-(4-fluoro-3-methylphenyl)-1,2-dimethyl-5-(2-(((1s,4s)-4-(methylsulfonyl)cyclohexyl)amino)-2-oxoacetyl)-1H-pyrrole-3-carboxamide] | < 50 | > 30000
Cc1cc(NC(=O)c2c(C3CC3)c(C(=O)C(=O)N[C@]3(C)CC[C@@H](O)CC3)n(C)c2C)ccc1F [Example 102, 4-cyclopropyl-N-(4-fluoro-3-methylphenyl)-5-(2-(((1r,4r)-4-hydroxy-1-methylcyclohexyl)amino)-2-oxoacetyl)-1,2-dimethyl-1H-pyrrole-3-carboxamide] | < 50 | > 30000
Cc1c(C(=O)Nc2ccc(F)c(C#N)c2)c(C)n(C)c1C(=O)C(=O)Nc1ccc(B(O)O)cc1 [Example 140, (4-(2-(4-((3-cyano-4-fluorophenyl)carbamoyl)-1,3,5-trimethyl-1H-pyrrol-2-yl)-2-oxoacetamido)phenyl)boronic acid] | < 50 | > 30000
Cc1cc(NC(=O)c2c(C)c(C(=O)C(=O)N[C@]3(C4CC4)CC[C@@H](O)CC3)n(C)c2C)ccc1F [Example 3, 5-(2-(((1r,4r)-1-cyclopropyl-4-hydroxycyclohexyl)amino)-2-oxoacetyl)-N-(4-fluoro-3-methylphenyl)-1,2,4-trimethyl-1H-pyrrole-3-carboxamide] | < 50 | > 30000
Cc1c(C(=O)Nc2ccc(F)c(F)c2)c2n(c1C(=O)C(=O)NC1(C)CCN(C(=O)Nc3ccc(F)c(F)c3)CC1)CCCC2 [Example 33, N-(3,4-difluorophenyl)-3-(2-((1-((3,4-difluorophenyl)carbamoyl)-4-methylpiperidin-4-yl)amino)-2-oxoacetyl)-2-methyl-5,6,7,8-tetrahydroindolizine-1-carboxamide] | < 50 | 500 to 4990
CCOC(=O)CO[C@H]1CC[C@@H](NC(=O)C(=O)c2c(C)c(C(=O)Nc3ccc(F)c(C)c3)c(C)n2C)CC1 [Example 26, ethyl 2-(((1s,4s)-4-(2-(4-((4-fluoro-3-methylphenyl)carbamoyl)-1,3,5-trimethyl-1H-pyrrol-2-yl)-2-oxoacetamido)cyclohexyl)oxy) acetate] | > 1000 | > 30000

— patent US20230107941A1, “HEPATITIS B CAPSID ASSEMBLY MODULATORS” (Venatorx Pharmaceuticals, Inc., priority 2019, published 2023)
